Measurements reported in US10349662B2, “Insecticidal compositions and methods of using the same” (priority 2011, dated 2019).
Converted amounts (≈) assume the structure as drawn. “And” between values parts separate entries of the source, which are not always exact repeats. Equal values may be shown once. Read-outs that look alike come from different tables or passages of the source.

How the values were obtained:
[1] = cited from earlier work
[2] = system: Cytochrome P450 enzyme; assay: P450 activity assay (7-ethoxycoumarin, fluorescence); format: biochemical, A. aegypti; conditions: FIG. 2; for inhibition of P450 activity: added to the assay
Description: Cytochrome P450 enzyme solution was prepared by homogenizing 15, 3 to 5 day old, A. aegypti females and centrifuging the mixture at 10,000 g for 1 minute. The pellet was discarded, and the supernatant was used as the P450 enzyme stock solution. 10 μL of this P450 enzyme stock and 90 μL of 7-ethoxycoumarin solution (0.526 mM of 7-ethoxycoumarin, 1.11 mM NADPH, 0.05 mM phosphate buffer) was added to each well of the micropipette plate to begin the reaction. During the reaction, the micropipette plate was covered with aluminum foil to prevent photo-bleaching. The reaction was incubated at 30° C. for 4 hours. The reaction was stopped by adding 30 μL of stop solution (0.1 mM glycine, pH 10.4, 50% ethanol). The micropipette plate was then analyzed by measuring the fluorescence (Emission=460 nm, Excitation=360 nm) of each well. High fluorescence was directly related to product, and thus indicated a high level of P450 activity.

[3] = system: Aedes aegypti mosquitoes; assay: Topical bioassay on adult female Aedes aegypti mosquitoes (knockdown 1 h, mortality 24 h; Colby calculation for combinations); format: in vivo
Text: Components of a composition can have a synergistic or additive effect on insecticidal activity. Components have an additive effect when the effect of the combination is equal to the sum of the effects of each individual component. In contrast, components have a synergistic effect when the effect of the combination exceeds the sum of the effects of the components when applied individually. The effect (E) of a combination of two compounds may be calculated using the Colby formula (1) (S. R. Colby, “Calculating Synergistic and Antagonistic Responses of Herbicide Combinations”, Weeds 1967, 15, 20-22):
If the actual insecticidal kill rate is the calculated value (E), then the action of the combination is additive. If the actual insecticidal kill rate exceeds the calculated value (E), then the action of the combination is super-additive, that is, a synergistic effect is present. If the insecticidal kill rate is lower than the calculated value (E), then the action of the combination is considered antagonistic.
Adult female Aedes aegypti mosquitoes were segregated in 18″×18″ screen cages based on date of eclosion, therefore the exact age of the mosquitoes were known for bioassays.
Ten female mosquitoes, aged four to six days after eclosion, were aspirated out of their respective cage and into a small glass jar. The mosquitoes were then anesthetized with CO2 gas for 30 seconds. After the adults were anesthetized, they were quickly placed on a plastic platform for treatment application. Treatments were serially diluted (using a BrandTech Scientific Transferpette S pipette (100-1000 μL), labeled centrifuge tubes, and a vortex mixer) from stocks of insecticides using reagent grade acetone as the diluent to concentrations as indicated for each treatment solution. A treatment solution may contain additional ingredients as indicated for each study.
Using a Hamilton PB00-1 Repeating Dispenser with a Hamilton 25 Microliter Syringe, 0.5 μL of each treatment solution was applied to the thorax of each mosquito. Immediately following the application of the treatment, the mosquitoes were gently transferred into a clean paper cup and covered with screen. The mesh screen prevented the mosquitoes from escaping and allowed the specimens to be viewed for ratings. A cotton ball soaked with 10% sucrose solution was inserted into a side hole of each cup for hydration and nourishment. Each treatment variable in the study was replicated three times using separate cups for each replication.
The untreated controls treatments were anesthetized for 30 seconds and gently transferred to the paper cups. The acetone treated control was treated exactly as described above except that the solution applied to each mosquito was undiluted acetone.
The condition of the mosquitoes in each cup was recorded at one hour and 24 hours after initial treatment. The condition classifications used were (1) alive and flying, (2) alive and unable to fly, or (3) dead. The percent mortality for each treatment was calculated by summing the mortalities of each replicate then calculating the percent dead from the total number of mosquitoes.
Where indicated, the mortality data were subjected to probit analysis using the Statistical Analysis System Version 9.1 program PROC PROBIT (SAS Institute (2003) PROC user's manual, version 9.1. SAS Institute, Cary, N.C.).

[4] = system: Culex quinquefasciatus mosquitoes; assay: Topical bioassay on adult female Culex quinquefasciatus mosquitoes (knockdown 1 h, mortality 24 h; Colby calculation for combinations); format: in vivo

Structure (SMILES): C=C1CC[C@H]2O[C@]2(C)CC[C@@H]2[C@@H]1CC2(C)C [Caryophyllene Oxide-Beta]
- Vapor Pressure (@ 25° C.) [1]: 0.01 mmHg
- Solubility (in water @ 25° C.) [1]: 2.21 µg/mL (≈ 10 µM)

Structure (SMILES): CCCCOCCOCCOCc1cc2c(cc1CCC)OCO2 [PBO, piperonyl butoxide, reference compound]
- inhibition of P450 activity [2]: acted as inhibitors

Structure (SMILES): C=C1CC/C=C(\C)CC[C@@H]2[C@@H]1CC2(C)C [β-Caryophyllene]
- Vapor Pressure (@ 25° C.) [1]: 0.031 mmHg
- Solubility (in water @ 25° C.) [1]: 0.05 µg/mL (≈ 0.245 µM)
- 1 hour knockdown ([3]; 1%): 0%
- % MORTALITY AFTER 24 HRS ([3]; 1%): 0%
- % MORTALITY AFTER 24 HRS ([3]; 3%): 0%
- % MORTALITY AFTER 24 HRS ([3]; 3%, listed as β-CARYOPHYLLENE): 77%
- 1 hour knockdown ([3]; 5%): 10%
- % MORTALITY AFTER 24 HRS ([3]; 5%): 17%
- 1 hour knockdown ([3]; 10%): 57%
- % MORTALITY AFTER 24 HRS ([3]; 10%): 40%
- 1 hour knockdown ([3]; 20%): 93%
- % MORTALITY AFTER 24 HRS ([3]; 20%): 83%
- % MORTALITY AFTER 24 HRS ([3]; single active, 3%): 7% and 10%

Structure (SMILES): C=CC(C)(O)CCC=C(C)C (stereo not shown) [Linalool]
- Vapor Pressure (@ 25° C.) [1]: 0.16 mmHg
- Viscosity (@ 25° C.) [1]: 4.4 mPa

Structure (SMILES): C=C(C)C1CC=C(C=O)CC1 (stereo not shown) [Perillaldehyde, perillaldehyde]
- 1 hour knockdown ([4]; 2%): 33%
- % MORTALITY AFTER 24 HRS ([4]; 2%): 13%
- % MORTALITY AFTER 24 HRS ([4]; 3%): 13%
- Vapor Pressure (@ 25° C.) [1]: 0.0463 mmHg
- Solubility (in water @ 25° C.) [1]: 160.7 µg/mL (≈ 1070 µM)
- 1 hour knockdown ([3]; 3%): 53%
- mortality at 1 % ([3]; Aedes aegypti, topical, 24 h, read-out: % MORTALITY AFTER 24 HRS, 1%): 3%
- mortality at 1 % ([3]; Aedes aegypti, topical, 24 h, read-out: % MORTALITY AFTER 24 HRS, single active, 1%): 0%
- mortality at 3 % ([3]; Aedes aegypti, topical, 24 h, read-out: % MORTALITY AFTER 24 HRS, single active, 3%): 73%
- inhibition of P450 activity [2]: acted as inhibitors
- inhibition of P450 activity relative to PBO ([2]; perillaldehyde at 1% vs PBO at 2%): as potent an inhibitor of P450 as PBO at 2%
- inhibition of P450 activity relative to PBO ([2]; perillaldehyde at 10% vs PBO at 2%): a more potent inhibitor of P450 than PBO at 2%

Structure (SMILES): C=C1CCC2CC1C2(C)C (stereo not drawn) [Pinene Beta]
- Vapor Pressure (@ 25° C.) [1]: 2.93 mmHg

Structure (SMILES): C=C/C(C)=C/C/C=C(\C)CCC=C(C)C [Farnesene Alpha]
- Vapor Pressure (@ 25° C.) [1]: 0.025 mmHg
- Solubility (in water @ 25° C.) [1]: 0.011 µg/mL (≈ 0.0538 µM)

Structure (SMILES): CC1=CCC2CC1C2(C)C (stereo not drawn) [Pinene Alpha]
- Vapor Pressure (@ 25° C.) [1]: 4.75 mmHg

Structure (SMILES): C=C1CC[C@@H]2[C@H]([C@H]3[C@H]1CC[C@]3(C)O)C2(C)C [Spathulenol]
- Vapor Pressure (@ 25° C.) [1]: 1.2 × 10^−4 mmHg
- Solubility (in water @ 25° C.) [1]: 12.4 µg/mL (≈ 56.3 µM)

Structure (SMILES): C=C1/C=C/[C@H](C(C)C)CC/C(C)=C/CC1 [Germacrene D]
- Vapor Pressure (@ 25° C.) [1]: 0.023 mmHg
- Solubility (in water @ 25° C.) [1]: 0.013 µg/mL (≈ 0.0636 µM)

Structure (SMILES): CN/C(=N/CC1CCOC1)N[N+](=O)[O-] (stereo not shown) [Dinotefuran, dinotefuran, reference compound]
- 1 hour knockdown ([4]; 0.008 μg/mosquito): 10%
- % MORTALITY AFTER 24 HRS ([4]; 0.008 μg/mosquito): 77% and 73%
- 1 hour knockdown ([3]; 0.004 μg/mosquito): 0%
- % MORTALITY AFTER 24 HRS ([3]; 0.004 μg/mosquito): 0%
- 1 hour knockdown ([3]; 0.006 μg/mosquito): 0% and 3%
- mortality at 0.004 µg/mosquito ([3]; Aedes aegypti, topical, 24 h, read-out: % MORTALITY AFTER 24 HRS, 0.004 μg/mosquito): 0%
- LD50 ([3]; topical application, adult Aedes aegypti): 0.06 μg/mosquito

Structure (SMILES): C=C(C)[C@H]1CC=C(C)CC1 [D-limonene]
- Vapor Pressure (@ 25° C.) [1]: 1.541 mmHg
